In the NIST ThermoML archive (doi:10.1021/je800150h):

Assay: mn = molality of the nth substance listed, in mol/kg
Settings: 101 kPa, Liquid; for electrical conductivity: CyberScan CON500 conductivity meter

[Cl-].[Li+] [lithium chloride] + O
Settings | electrical conductivity [S/m] | mass density [kg/m3] | viscosity [mPa·s]
268.1 K, m1 = 0.5 | – | 1013.4 | 2.273
268.1 K, m1 = 1 | – | 1024.4 | 2.554
268.1 K, m1 = 2 | – | 1047.1 | 2.831
268.1 K, m1 = 3 | – | 1067.8 | 3.191
268.1 K, m1 = 4.5 | – | 1095.9 | 3.649
268.1 K, m1 = 6 | – | 1121.7 | 4.461
268.1 K, m1 = 8 | – | 1155.4 | 6.735
268.1 K, m1 = 11 | – | 1200.2 | 10.85
268.1 K, m1 = 14 | – | 1240.7 | 18.98
268.1 K, m1 = 17.8 | – | 1288.4 | 28.66
273.1 K, m1 = 0.5 | – | 1013.2 | 1.944
273.1 K, m1 = 1 | – | 1024.4 | 2.107
273.1 K, m1 = 2 | – | 1046.9 | 2.37
273.1 K, m1 = 3 | – | 1067.4 | 2.681
273.1 K, m1 = 4.5 | – | 1095 | 3.133
273.1 K, m1 = 6 | – | 1121.2 | 3.815
273.1 K, m1 = 8 | – | 1153.7 | 5.744
273.1 K, m1 = 11 | – | 1198.7 | 9.191
273.1 K, m1 = 14 | – | 1239.1 | 15.82
273.1 K, m1 = 17.8 | – | 1286.4 | 24.99
278.1 K, m1 = 0.5 | 2.61 | – | 1.663
278.1 K, m1 = 1 | 4.64 | 1024 | 1.784
278.1 K, m1 = 2 | 7.64 | 1046.3 | 2
278.1 K, m1 = 3 | 9.59 | 1066.4 | 2.266
278.1 K, m1 = 4.5 | 11.5 | 1094.1 | 2.69
278.1 K, m1 = 6 | 12 | 1119.8 | 3.258
278.1 K, m1 = 8 | 11.5 | 1152.6 | 4.899
278.1 K, m1 = 11 | 9.37 | 1197.1 | 7.784
278.1 K, m1 = 14 | 6.99 | 1237.4 | 13.17
278.1 K, m1 = 17.8 | 4.71 | 1284.2 | 21.79
283.1 K, m1 = 0.5 | 2.99 | 1012.5 | 1.424
283.1 K, m1 = 1 | 5.2 | 1023.3 | 1.518
283.1 K, m1 = 2 | 8.61 | 1045.3 | 1.701
283.1 K, m1 = 3 | 11 | 1065.4 | 1.936
283.1 K, m1 = 4.5 | 13 | 1092.8 | 2.303
283.1 K, m1 = 6 | 13.6 | 1118.8 | 2.777
283.1 K, m1 = 8 | 13.1 | 1151.4 | 4.17
283.1 K, m1 = 11 | 10.7 | 1195.6 | 6.579
283.1 K, m1 = 14 | 8.01 | 1235.8 | 10.97
283.1 K, m1 = 17.8 | 5.52 | 1282.2 | 19.66
288.15 K, m1 = 0.5 | 3.35 | 1011.6 | 1.243
288.15 K, m1 = 1 | 5.87 | 1022.2 | 1.346
288.15 K, m1 = 2 | 9.62 | 1044.1 | 1.502
288.15 K, m1 = 3 | 12.3 | 1064.3 | 1.729
288.15 K, m1 = 4.5 | 14.5 | 1091.5 | 2.034
288.15 K, m1 = 6 | 15.2 | 1117.4 | 2.452
288.15 K, m1 = 8 | 14.6 | 1149.8 | 3.602
288.15 K, m1 = 11 | 12.1 | 1194 | 5.63
288.15 K, m1 = 14 | 9.09 | 1234.1 | 9.142
288.15 K, m1 = 17.8 | 6.45 | 1280.2 | 17.14
293.15 K, m1 = 0.5 | 3.74 | 1010.8 | 1.087
293.15 K, m1 = 1 | 6.53 | 1021.4 | 1.16
293.15 K, m1 = 2 | 10.7 | 1043 | 1.308
293.15 K, m1 = 3 | 13.7 | 1063.1 | 1.495
293.15 K, m1 = 4.5 | 16.1 | 1090.5 | 1.777
293.15 K, m1 = 6 | 16.9 | 1116.1 | 2.131
293.15 K, m1 = 8 | 16.3 | 1148.5 | 3.199
293.15 K, m1 = 11 | 13.6 | 1192.5 | 4.898
293.15 K, m1 = 14 | 10.4 | 1232.6 | 7.966
293.15 K, m1 = 17.8 | 7.44 | 1278.3 | –
